Experimental data reported in patent publication US10206944B2, “Chondroitin for use in medicine” (ALTERGON S.A., priority 2012, dated 2019).

Experiments:
[1] = system: Aggrecan; test: Real-Time PCR gene expression in human chondrocytes: aggrecan; format: cell-based; details: 1% w/v, ratio to untreated control
Method: To evaluate the biological effects of chondroitin on human chondrocyte cultures, the expression of a set of genes considered key to establishing the phenotype, and suitable markers for evaluating the quality of the tissue generated, was determined. The study was conducted on chondrocytes prepared from human cartilage, as reported in Example 2, the cells being grown in the presence of chondroitin or chondroitin sulphate. Using a standard procedure, 5*10^4 cells per well were seeded in a 24-well multiwell plate. The chondrocytes were grown in DMEM containing 1% w/v of chondroitin or chondroitin sulphate (endotoxin content ≤0.1 EU/mg). The cells were stimulated for 4, 7 and 10 days (Ishak et al., International J. of Pediatric Otorhinolaryngology, 2011, 75: 835-840), after which the RNA was extracted with Trizol Reagent, as described in the kit manual (Life Technologies Ltd, Milan, Italy). A qualitative morphological analysis of the cell culture was also conducted at the various times, in parallel with RNA extraction, by observing the corresponding samples at 4, 7 and 10 days under the optical microscope. The cells seeded at the three different times were observed under the microscope, and the images that best represented the cell growth conditions were acquired using a time-lapse videomicroscopy workstation. After RNA extraction, reverse transcription was performed with a total of 1 μg RNA and then with amplification by Real-Time PCR of genes which are specific markers for chondrocytes (Table 3).
Genes connected with matrix production, such as aggrecan, type I collagen, type II collagen and the Sox9 gene, the expression of which is closely correlated with the expression of type II collagen, were analysed as specific markers for differentiation and characterisation of chondrocytes. (Akiyama H., Mod Rheumatol., 2008, 18(3): 213-9; Yang et al., J. of Orthopaedic Res. 2011).
The gene expression of said markers on human chondrocytes cultured in basic medium (control) and with chondroitin treatment (C) or chondroitin sulphate treatment (CS) was analysed on cell cultures in the second and third growth phases.
The results of the gene expression analysis were reported as the average of at least 3 independent experiments for tests conducted in the presence of C or CS, on cells in phases 2 and 3.

[2] = system: Enterococcus faecalis strain ATCC 19433; test: Inhibition of bacterial growth on plate, E. faecalis; format: cell-based
Method: The antibacterial activity of chondroitin (C) and chondroitin sulphate (CS) on the growth of Escherichia coli ATCC 25922 and Enterococcus faecalis ATCC 19433 on a solid medium in vitro was examined. The concentrations explored ranged from 40 μg/mL to 40 mg/mL of C or CS as final concentrations in the medium. Brain-heart infusion (Oxoid) was used as culture medium for E. coli ATCC 25922, and M17 (Oxoid) for E. faecalis ATCC 19433; both media were adjusted to the same pH and the same osmolarity before being solidified by adding agar and cooled. 100 μL of a bacterial suspension containing 10^2, 10^3 or 10^4 bacteria/mL was plated as inoculum. […] The number of colonies was then counted on control plates in the absence of the substances under study and on plates at the various concentrations of C and CS. The data from the experiments for the two micro-organisms, conducted in triplicate for each of the conditions, are shown in tables 7 and 8.

[3] = 40 μg/mL, 10 bacteria inoculated
[4] = 40 μg/mL, 100 bacteria inoculated
[5] = 40 μg/mL, 1000 bacteria inoculated
[6] = 400 μg/mL, 10 bacteria inoculated
[7] = 400 μg/mL, 100 bacteria inoculated
[8] = 400 μg/mL, 1000 bacteria inoculated
[9] = 4 mg/mL, 10 bacteria inoculated
[10] = 4 mg/mL, 100 bacteria inoculated
[11] = 4 mg/mL, 1000 bacteria inoculated
[12] = 40 mg/mL (maximum concentration)
[13] = 40 mg/mL, 10 bacteria inoculated
[14] = 40 mg/mL, 100 bacteria inoculated
[15] = 40 mg/mL, 1000 bacteria inoculated

Substance | Fold Expression, Aggrecan ([1]; phase II, 4 g) | Fold Expression, Aggrecan ([1]; phase II, 7 g) | Fold Expression, Aggrecan ([1]; phase II, 10 g) | Fold Expression, Aggrecan ([1]; phase III, 4 g) | Fold Expression, Aggrecan ([1]; phase III, 7 g) | Fold Expression, Aggrecan ([1]; phase III, 10 g) | CFU after 36 h [2, 3] [CFU] | CFU after 36 h [2, 4] [CFU] | CFU after 36 h [2, 5] [CFU] | Inhibition factor ([2]; 400 μg/mL) | Qualitative valuation of inhibition ([2]; 400 μg/mL) | CFU after 36 h [2, 6] [CFU] | CFU after 36 h [2, 7] [CFU] | CFU after 36 h [2, 8] [CFU] | Inhibition factor ([2]; 4 mg/mL) | Qualitative valuation of inhibition ([2]; 4 mg/mL) | CFU after 36 h [2, 9] [CFU] | CFU after 36 h [2, 10] [CFU] | CFU after 36 h [2, 11] [CFU] | Qualitative valuation of inhibition ([2]; 40 mg/mL) | further results
chondroitin | 0.08 ± 0.02 | 1.66±0.22 | 1.07 ± 0.15 | 0.16 ± 0.08 | 0.79 ± 0.2 | 2.3 ± 1.0 | 8 ± 2 | 82 ± 5 | 870 ± 70 | 2 | significant | 5 ± 1 | 55 ± 6 | 480 ± 30 | 6.1 | significant | 0 | 18 ± 4 | 150 ± 4 | high | Inhibition factor ([2]; 40 μg/mL): 1.2; Qualitative valuation of inhibition ([2]; 40 μg/mL): mild; Inhibition factor [2, 12]: 50; CFU after 36 h [2, 13]: 0 CFU; CFU after 36 h [2, 14]: 0 CFU; CFU after 36 h [2, 15]: 20 ± 2 CFU
chondroitin sulphate [CS, reference compound] | 1.28 ± 0.75 | 0.72 ± 0.27 | 0.45 ± 0.19 | 0.17 ± 0.10 | 0.87 ± 0.20 | 0.59 ± 0.13 | 8 ± 2 | 90 ± 7 | 960 ± 70 | 1.3 | mild | 7 ± 1 | 80 ± 5 | 780 ± 70 | 2 | significant | 5 ± 1 | 48 ± 4 | 520 ± 30 | high | Inhibition factor [2, 12]: 7.4; CFU after 36 h [2, 13]: 0 CFU; CFU after 36 h [2, 14]: 15 ± 2 CFU; CFU after 36 h [2, 15]: 120 ± 10 CFU
